Experimental findings from patent US12577234B2, “Antagonists of the muscarinic acetylcholine receptor M4” (Vanderbilt University, priority 2017, dated 2026) are described below.

Each structure is given as a SMILES string.

The target of the experiment is T1, human mAChR M4 (Homo sapiens, UniProt P08173).
T1 construct: expressed in transfected cells; host or cells: CHO-K1 (ATCC), stably co-expressing chimeric G protein Gqi5
T1 sequence (P08173 1-479): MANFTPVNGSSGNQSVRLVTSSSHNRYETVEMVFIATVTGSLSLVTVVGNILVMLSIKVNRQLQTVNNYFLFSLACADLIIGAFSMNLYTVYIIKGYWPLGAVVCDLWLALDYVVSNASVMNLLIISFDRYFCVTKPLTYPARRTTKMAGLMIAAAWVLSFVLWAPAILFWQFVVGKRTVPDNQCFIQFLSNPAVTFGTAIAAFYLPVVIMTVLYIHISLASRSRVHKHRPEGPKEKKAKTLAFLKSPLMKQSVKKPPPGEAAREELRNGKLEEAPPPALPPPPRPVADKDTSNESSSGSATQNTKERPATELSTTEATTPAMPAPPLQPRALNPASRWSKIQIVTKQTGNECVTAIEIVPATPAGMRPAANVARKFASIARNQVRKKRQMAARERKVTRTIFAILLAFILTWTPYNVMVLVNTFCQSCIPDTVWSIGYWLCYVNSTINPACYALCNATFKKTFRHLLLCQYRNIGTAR
In words: mAChR M4 cell-based functional assay (calcium mobilization, EC80 acetylcholine), human M4. The note with it: Table 9; for IC50: M4/Gqi5/CHO-K1 cells, decrease of EC80 acetylcholine response; for Emin: human M4, % ACh maximum at 30 μM. As to the method:
Human or rat M4 cDNA, along with the chimeric G protein Gqi5, were transfected into Chinese hamster ovary (CHO-K1) cells purchased from the American Type Culture Collection using Lipofectamine2000. M4/Gqi5/CHO cells were grown in Ham's F-12 medium containing 10% heat-inactivated fetal bovine serum (FBS), 20 mM HEPES, 500 μg/mL G418 sulfate, and 200 μg/mL Hygromycin B.
For high throughput measurement of agonist-evoked increases in intracellular calcium, CHO-K1 cells stably expressing muscarinic receptors were plated in growth medium lacking G418 and hygromycin at 15,000 cells/20 μL/well in Greiner 384-well black-walled, tissue culture (TC)-treated, clear-bottom plates (VWR). Cells were incubated overnight at 37° C. and 5% CO2. […] Compound master plates were formatted in a 10 point concentration-response curve (CRC) format (1:3 dilutions) in 100% DMSO with a starting concentration of 10 or 1 mM using a BRAVO liquid handler (Agilent). Test compound CRCs were then transferred to daughter plates (240 nL) using the Echo acoustic plate reformatter (Labcyte, Sunnyvale, CA) and then diluted into assay buffer (40 μL) to a 2× stock using a Thermo Fisher Combi (Thermo Fisher Scientific, Waltham, MA).
Calcium flux was measured using the Functional Drug Screening System (FDSS) 6000 or 7000 (Hamamatsu Corporation, Tokyo, Japan) as an increase in the fluorescent static ratio. Compounds were applied to cells (20 μL, 2×) using the automated system of the FDSS at 2 seconds into the protocol and the data were collected at 1 Hz. […] Agonist activity was analyzed as a concentration-dependent increase in calcium mobilization upon compound addition. Positive allosteric modulator activity was analyzed as a concentration-dependent increase in the EC20 acetylcholine response. Antagonist activity was analyzed as a concentration-dependent decrease in the EC80 acetylcholine response; for the purposes of the tables herein, an IC50 (inhibitory concentration 50) was calculated as a concentration-dependent decrease of the response elicited by an EC80 concentration of acetylcholine. Concentration-response curves were generated using a four-parameter logistical equation in XLFit curve fitting software (IDBS, Bridgewater, NJ) for Excel (Microsoft, Redmond, WA) or Prism (GraphPad Software, Inc., San Diego, CA) or the Dotmatics software platform (Dotmatics, Bishop's Stortford, UK).
(A change in cytosolic calcium serves as a functional read-out for many receptors and channels.)

As a reminder, the IC50 is the concentration at which inhibition is half-maximal. `Cc1cnn(C)c1-c1ccc(N[C@H]2C[C@@H]3CN(CCC(C)(C)C)C[C@@H]3C2)nn1` [Compound 1, (3aR,5s,6aS)-2-(3,3-Dimethylbutyl)-N-[6-(2,4-dimethylpyrazol-3-yl)pyridazin-3-yl]-3,3a,4,5,6,6a-hexahydro-1H-cyclopenta[c]pyrrol-5-amine]: the IC50 is 0.008 µM and the Emin stood at 13.1%.
For `Cc1nn(C)cc1-c1ccc(N[C@H]2C[C@@H]3CN(CC4CC5C=CC4C5)C[C@@H]3C2)nn1` (stereo partly drawn) [Compound 2, (3aR,5s,6aS)-2-(5-bicyclo[2.2.1]hept-2-enylmethyl)-N-[6-(1,3-dimethylpyrazol-4-yl)pyridazin-3-yl]-3,3a,4,5,6,6a-hexahydro-1H-cyclopenta[c]pyrrol-5-amine], in that order: 0.0003 µM and 3.87%.
For `Cc1nn(C)cc1-c1ccc(N[C@H]2C[C@@H]3CN(CCC(C)(C)C)C[C@@H]3C2)nn1` [Compound 3, (3aR,5s,6aS)-2-(3,3-dimethylbutyl)-N-[6-(1,3-dimethylpyrazol-4-yl)pyridazin-3-yl]-3,3a,4,5,6,6a-hexahydro-1H-cyclopenta[c]pyrrol-5-amine], in that order: 0.0006 µM and 4.99%.
As to `Cc1nn(C)cc1-c1ccc(N[C@H]2C[C@@H]3CN(CC(C)C(C)(C)C)C[C@@H]3C2)nn1` (stereo partly drawn) [Compound 4, (3aR,5s,6aS)-N-[6-(1,3-dimethylpyrazol-4-yl)pyridazin-3-yl]-2-(2,3,3-trimethylbutyl)-3,3a,4,5,6,6a-hexahydro-1H-cyclopenta[c]pyrrol-5-amine], the IC50 was determined as 0.002 µM and the Emin was found to be 2.81%.
For the compound `Cc1nn(C)cc1-c1ccc(N[C@H]2C[C@@H]3CN(CC4CCOCC4)C[C@@H]3C2)nn1` [Compound 5, (3aR,5s,6aS)-N-[6-(1,3-dimethylpyrazol-4-yl)pyridazin-3-yl]-2-(tetrahydropyran-4-ylmethyl)-3,3a,4,5,6,6a-hexahydro-1H-cyclopenta[c]pyrrol-5-amine], the IC50 was found to be 0.01 µM and the Emin came to 2.98%.
Turning to `Cc1nn(C)cc1-c1ccc(N[C@H]2C[C@@H]3CN(CC4CCCOC4)C[C@@H]3C2)nn1` (stereo partly drawn) [Compound 6, (3aR,5s,6aS)-N-[6-(1,3-dimethylpyrazol-4-yl)pyridazin-3-yl]-2-(tetrahydropyran-3-ylmethyl)-3,3a,4,5,6,6a-hexahydro-1H-cyclopenta[c]pyrrol-5-amine], the IC50 turned out to be 0.0114 µM and the Emin was 3.33%.
Turning to `Cc1nn(C)cc1-c1ccc(N[C@H]2C[C@@H]3CN(CC4CCCCC4)C[C@@H]3C2)nn1` [Compound 7, (3aR,5s,6aS)-2-(cyclohexylmethyl)-N-[6-(1,3-dimethylpyrazol-4-yl)pyridazin-3-yl]-3,3a,4,5,6,6a-hexahydro-1H-cyclopenta[c]pyrrol-5-amine], the IC50 is 0.01 µM and the Emin came to 2.72%.
Turning to `Cc1nn(C)cc1-c1ccc(N[C@H]2C[C@@H]3CN(Cc4ccccc4)C[C@@H]3C2)nn1` [Compound 8, (3aR,5s,6aS)-2-benzyl-N-[6-(1,3-dimethylpyrazol-4-yl)pyridazin-3-yl]-3,3a,4,5,6,6a-hexahydro-1H-cyclopenta[c]pyrrol-5-amine], the IC50 worked out at 0.01 µM and the Emin came out at 3.22%.
Consider `Cc1nn(C)cc1-c1ccc(N[C@H]2C[C@@H]3CN(Cc4ccccn4)C[C@@H]3C2)nn1` [Compound 9, (3aR,5s,6aS)-N-[6-(1,3-dimethylpyrazol-4-yl)pyridazin-3-yl]-2-(2-pyridylmethyl)-3,3a,4,5,6,6a-hexahydro-1H-cyclopenta[c]pyrrol-5-amine], for which the IC50 was 0.0458 µM and the Emin turned out to be 3.96%.
As for `Cc1cnn(C)c1-c1ccc(N[C@H]2C[C@@H]3CN(CC4CC5C=CC4C5)C[C@@H]3C2)nn1` (stereo partly drawn) [Compound 17, (3aR,5s,6aS)-2-(5-bicyclo[2.2.1]hept-2-enylmethyl)-N-[6-(2,4-dimethylpyrazol-3-yl)pyridazin-3-yl]-3,3a,4,5,6,6a-hexahydro-1H-cyclopenta[c]pyrrol-5-amine], the IC50 worked out at 0.0008 µM and the Emin is listed as 6.3%.
With `CCC(C)CN1C[C@H]2C[C@H](Nc3ccc(-c4c(C)cnn4C)nn3)C[C@H]2C1` (stereo partly drawn) [Compound 18, (3aR,5s,6aS)-N-[6-(2,4-dimethylpyrazol-3-yl)pyridazin-3-yl]-2-(2-methylbutyl)-3,3a,4,5,6,6a-hexahydro-1H-cyclopenta[c]pyrrol-5-amine], the IC50 was determined as 0.0902 µM and the Emin was determined as 2.90%.
For `CCCC(C)CN1C[C@H]2C[C@H](Nc3ccc(-c4c(C)cnn4C)nn3)C[C@H]2C1` (stereo partly drawn) [Compound 19, (3aR,5s,6aS)-N-[6-(2,4-dimethylpyrazol-3-yl)pyridazin-3-yl]-2-(2-methylpentyl)-3,3a,4,5,6,6a-hexahydro-1H-cyclopenta[c]pyrrol-5-amine], in that order: 0.01 µM and 3.11%.
Turning to `Cc1cnn(C)c1-c1ccc(N[C@H]2C[C@@H]3CN(CC4CCCCC4)C[C@@H]3C2)nn1` [Compound 20, (3aR,5s,6aS)-2-(cyclohexylmethyl)-N-[6-(2,4-dimethylpyrazol-3-yl)pyridazin-3-yl]-3,3a,4,5,6,6a-hexahydro-1H-cyclopenta[c]pyrrol-5-amine], the IC50 stood at 0.001 µM and the Emin came to 7.16%.
For `Cc1cnn(C)c1-c1ccc(N[C@H]2C[C@@H]3CN(CC4CCOCC4)C[C@@H]3C2)nn1` [Compound 21, (3aR,5s,6aS)-N-[6-(2,4-dimethylpyrazol-3-yl)pyridazin-3-yl]-2-(tetrahydropyran-4-ylmethyl)-3,3a,4,5,6,6a-hexahydro-1H-cyclopenta[c]pyrrol-5-amine], in that order: 0.01 µM and 4.32%.
With `Cc1cnn(C)c1-c1ccc(N[C@H]2C[C@@H]3CN(CC4CCCOC4)C[C@@H]3C2)nn1` (stereo partly drawn) [Compound 22, (3aR,5s,6aS)-N-[6-(2,4-dimethylpyrazol-3-yl)pyridazin-3-yl]-2-(tetrahydropyran-3-ylmethyl)-3,3a,4,5,6,6a-hexahydro-1H-cyclopenta[c]pyrrol-5-amine], the IC50 was 0.0815 µM and the Emin was determined as 4.08%.
For `Cc1cnn(C)c1-c1ccc(N[C@H]2C[C@@H]3CN(Cc4ccccc4)C[C@@H]3C2)nn1` [Compound 23, (3aR,5s,6aS)-2-benzyl-N-[6-(2,4-dimethylpyrazol-3-yl)pyridazin-3-yl]-3,3a,4,5,6,6a-hexahydro-1H-cyclopenta[c]pyrrol-5-amine], in that order: 0.118 µM and 3.85%.
For `Cc1cccnc1CN1C[C@H]2C[C@H](Nc3ccc(-c4c(C)cnn4C)nn3)C[C@H]2C1` [Compound 24, (3aR,5s,6aS)-N-[6-(2,4-dimethylpyrazol-3-yl)pyridazin-3-yl]-2-[(3-methyl-2-pyridyl)methyl]-3,3a,4,5,6,6a-hexahydro-1H-cyclopenta[c]pyrrol-5-amine], in that order: 0.0378 µM and 5.36%.
In the case of `Cc1cnn(C)c1-c1ccc(N[C@H]2C[C@@H]3CN(Cc4ccccc4F)C[C@@H]3C2)nn1` [Compound 25, (3aR,5s,6aS)-N-[6-(2,4-dimethylpyrazol-3-yl)pyridazin-3-yl]-2-[(2-fluorophenyl)methyl]-3,3a,4,5,6,6a-hexahydro-1H-cyclopenta[c]pyrrol-5-amine], the IC50 came to 0.193 µM and the Emin worked out at 4.92%.
